What is called IC50 is the midpoint of a concentration-inhibition curve.

The target of the assay is purified human Factor XIIa (Homo sapiens (Human), UniProt P00748). Put plainly: Factor XIIa assay. The note with it: substrate n-Acetyl-Lys-Pro-Arg-AFC 100 μM, pH 7.4, read-out: FXIIa IC50. The format is biochemical. As for the experimental part: “FXIIa IC50(nm)” is Human Factor XIIa IC50 (nm).
purified human Factor XIIa, sequence (P00748 373-615): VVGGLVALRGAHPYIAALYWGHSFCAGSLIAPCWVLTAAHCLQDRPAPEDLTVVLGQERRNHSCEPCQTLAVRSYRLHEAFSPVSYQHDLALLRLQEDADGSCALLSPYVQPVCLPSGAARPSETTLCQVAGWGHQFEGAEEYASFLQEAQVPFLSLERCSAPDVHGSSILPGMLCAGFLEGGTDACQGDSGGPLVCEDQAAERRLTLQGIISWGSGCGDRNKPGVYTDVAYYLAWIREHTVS
purified human Factor XIIa, sequence (P00748 20-372 partner): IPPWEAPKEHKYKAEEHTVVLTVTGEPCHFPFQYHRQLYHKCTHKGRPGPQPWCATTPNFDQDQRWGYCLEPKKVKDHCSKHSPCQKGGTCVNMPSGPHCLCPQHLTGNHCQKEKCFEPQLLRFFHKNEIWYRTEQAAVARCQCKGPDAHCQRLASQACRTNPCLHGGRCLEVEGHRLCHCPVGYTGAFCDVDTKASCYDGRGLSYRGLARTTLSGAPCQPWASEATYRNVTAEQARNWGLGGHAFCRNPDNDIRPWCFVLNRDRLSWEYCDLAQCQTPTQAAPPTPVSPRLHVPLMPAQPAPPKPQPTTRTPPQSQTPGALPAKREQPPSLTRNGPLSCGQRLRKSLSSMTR
The effectiveness of a compound of the present invention as an inhibitor of Coagulation Factor XIIa can be determined using a relevant purified serine protease, and an appropriate synthetic substrate. The rate of hydrolysis of the chromogenic or fluorogenic substrate by the relevant serine protease was measured both in the absence and presence of compounds of the present invention. Assays were conducted at room temperature or at 37° C. […] A decrease in the rate of fluorescence change in the presence of inhibitor is indicative of enzyme inhibition. Such methods are known to one skilled in the art. The results of this assay are expressed as the IC50, the inhibitor concentration causing a 50% decrease in Factor XIIa protease activity.
Factor XIIa activity determinations were made in 50 mM HEPES buffer containing 150 mM NaCl, 5 mM CaCl2, and 0.1% PEG 8000 (polyethylene glycol; JT Baker or Fisher Scientific) at pH 7.4. Determinations were made using purified human Factor XIIa at a final concentration of […] (Sekisui Diagnostics) and the synthetic substrate, n-Acetyl-Lys-Pro-Arg-AFC, TFA salt (Sigma # C6608) at a concentration of 100 μM.
Times required to achieve equilibration between enzyme and inhibitor were determined in control experiments. Initial velocities of product formation in the absence (Vo) or presence of inhibitor (Vi) were measured.
`O=C(NCc1cccs1)[C@H]1CN(C(=O)[C@@H](CC2CCNCC2)NC2CCCCC2)CC[C@H]1NC(=O)N1CCC2(CC1)CC2` [Compound 20, N-{(3S,4R)-1-(N-cyclohexyl-3-piperidin-4-yl-D-alanyl)-3-[(thiophen-2-ylmethyl)carbamoyl]pi-peridin-4-yl}-6-azaspiro[2.5]octane-6-carboxamide]: the IC50 is 47.2 nM.

Regarding `Cc1cnc(C(=O)N[C@@H]2CCN(C(=O)[C@@H](CCCCN)NC3CCCCC3)C[C@@H]2C(=O)NCc2cccs2)s1` [Compound 3, (3S,4R)-1-(N~2~- cyclohexyl-D-lysyl)-4-{[(5-methyl-1,3-thiazol-2-yl)carbonyl]amino}-N-(thiophen-2-ylmethyl)piperidine-3-carboxamide], the IC50 turned out to be 109 nM.

On to `CN(C1CCCCC1)[C@H](CCCCNS(C)(=O)=O)C(=O)N1CC[C@@H](NC(=O)N2CCC3(CC2)CC3)[C@@H](C(=O)NCc2cccs2)C1` [Compound 30, N-{(3S,4R)-1-[N~2~- cyclohexyl-N~2~- methyl-N~6~- (methylsulfonyl)-D-lysyl]-3-[(thiophen-2-ylmethyl)carbamoyl]pi-peridin-4-yl}-6-azaspiro[2.5]octane-6-carboxamide], for which the IC50 is 50.1 nM.

`NCc1ccc(CNC(=O)[C@H]2CN(C(=O)[C@@H](CC3CC3)NC3CCCCC3)CC[C@H]2NC(=O)N2CCC3(CC2)CC3)cc1` [Compound 12, N-[(3S,4R)-3-{[4-(amino-methyl)benzyl]carbamoyl}-1-(N-cyclohexyl-3-cyclopropyl-D-alanyl)piperidin-4-yl]-6-azaspiro[2.5]octane-6-carboxamide]: the IC50 came to 41.7 nM.

Regarding `Cc1csc(CNC(=O)[C@H]2CN(C(=O)[C@@H](CCCCN)NC3CCCCC3)CC[C@H]2NC(=O)N2CCC3(CC2)CC3)c1` [Compound 15, N-[(3S,4R)-1-(N~2~- cyclohexyl-D-lysyl)-3-{[(4-methylthiophen-2-yl)methyl]carbamoyl}pi-peridin-4-yl]-6-azaspiro[2.5]octane-6-carboxamide], the IC50 worked out at 60.2 nM.

Turning to `CN(C)CCCC[C@H](C(=O)N1CC[C@@H](NC(=O)N2CCC3(CC2)CC3)[C@@H](C(=O)NCc2cccs2)C1)N(C)C1CCCCC1` [Compound 33, N-{(3S,4R)-1-(N~2~- cyclohexyl-N~2~,N~6~,N~6~- trimethyl-D-lysyl)-3-[(thiophen-2-ylmethyl)carbamoyl]pi-peridin-4-yl}-6-azaspiro[2.5]octane-6-carboxamide], the IC50 was determined as 15.1 nM.

Turning to `CC(=O)OCCCC[C@@H](NC1CCCCC1)C(=O)N1CC[C@@H](NC(=O)N2CCC3(CC2)CC3)[C@@H](C(=O)NCc2cccs2)C1` [Compound 26, (5R)-6-{(3S,4R)-4-[(6-azaspiro[2.5]oct-6-ylcarbonyl)amino]-3-[(thiophen-2-ylmethy)carbamoyl]pi-peridin-1-yl}-5-(cyclohexylamino)-6-oxohexyl acetate], the IC50 amounted to 65.9 nM.

As to `CCS(=O)(=O)NCCCC[C@@H](NC1CCCCC1)C(=O)N1CC[C@@H](NC(=O)N2CCC3(CC2)CC3)[C@@H](C(=O)NCc2cccs2)C1` [Compound 21, N-{(3S,4R)-1-[N~2~- cyclohexyl-N~6~- (ethylsulfonyl)-D-lysyl]-3-[(thiophen-2-ylmethyl)carbamoyl]pi-peridin-4-yl}-6-azaspiro[2.5]octane-6-carboxamide], the IC50 came to 51.2 nM.

Regarding `CN(CCCC[C@@H](NC1CCCCC1)C(=O)N1CC[C@@H](NC(=O)N2CCC3(CC2)CC3)[C@@H](C(=O)NCc2cccs2)C1)S(C)(=O)=O` [Compound 32, N-{(3S,4R)-1-[N~2~- cyclohexyl-N~6~- methyl-N~6~- (methylsulfonyl)-D-lysyl]-3-[(thiophen-2-ylmethyl)carbamoyl]pi-peridin-4-yl}-6-azaspiro[2.5]octane-6-carboxamide], the IC50 came to 22.5 nM.

For `CN(C)CCCC[C@H](C(=O)N1CC[C@@H](NC(=O)c2ccc(Cl)cc2)[C@@H](C(=O)NCc2cccs2)C1)N(C)C1CCCCC1` [Compound 9, (3S,4R)-4-{[(4-chloro-phenyl)carbonyl]amino}-1-(N~2~- cyclohexyl-N~2~,N~6~,N~6~- trimethyl-D-lysyl)-N-(thiophen-2-ylmethyl)piperidine-3-carboxamide], the IC50 came out at 11.5 nM.

For `CN(C)CCCC[C@H](C(=O)N1CC[C@@H](NC(=O)c2ccc(F)cc2)[C@@H](C(=O)NCc2cccs2)C1)N(C)C1CCCCC1` [Compound 6, (3S,4R)-1-(N~2~- cyclohexyl-N~2~,N~6~,N~6~- trimethyl-D-lysyl)-4-{[(4-fluoro-phenyl)carbonyl]amino}-N-(thiophen-2-ylmethyl)piperidine-3-carboxamide], the IC50 amounted to 98.3 nM.

Consider `O=C(NCc1cccs1)[C@H]1CN(C(=O)[C@@H](CC2CCCCC2)NC2CCCCC2)CC[C@H]1NC(=O)N1CCCC2(CCNC2=O)C1` (stereo partly drawn) [Compound 36, N-((3S,4R)-1-((R)-3-cyclohexyl-2-(cyclohexylamino)pro-panoyl)-3-((thiophen-2-ylmethyl)carbamoyl)pi-peridin-4-yl)-1-oxo-2,7-diazaspiro[4.5]decane-7-carboxamide], for which the IC50 is 428 nM.

With `NCCCC[C@@H](NC1CCCCC1)C(=O)N1CC[C@@H](NC(=O)N2CCC3(CC2)CC3)[C@@H](C(=O)NCc2cccs2)C1` [Compound 11, N-{(3S,4R)-1-(N~2~- cyclohexyl-D-lysyl)-3-[(thiophen-2-ylmethyl)carbamoyl]pi-peridin-4-yl}-6-azaspiro[2.5]octane-6-carboxamide], the IC50 stood at 71.6 nM.

`CN(C)CCCC[C@H](C(=O)N1CC[C@@H](NC(=O)c2ccccc2)[C@@H](C(=O)NCc2cccs2)C1)N(C)C1CCCCC1` [Compound 8, (3S,4R)-1-(N~2~- cyclohexyl-N~2~,N~6~,N~6~- trimethyl-D-lysyl)-4-[(phenylcarbonyl)amino]-N-(thiophen-2-ylmethyl)piperidine-3-carboxamide]: the IC50 is 60.2 nM.

Take `O=C(NCc1cccs1)[C@H]1CN(C(=O)[C@@H](CCCCNS(=O)(=O)C2CC2)NC2CCCCC2)CC[C@H]1NC(=O)N1CCC2(CC1)CC2` [Compound 19, N-{(3S,4R)-1-[N~2~- cyclohexyl-N~6~- (cyclopropylsulfonyl)-D-lysyl]-3-[(thiophen-2-ylmethyl)carbamoyl]pi-peridin-4-yl}-6-azaspiro[2.5]octane-6-carboxamide]: the IC50 worked out at 43.1 nM.

As to `CN(C)CCCC[C@H](C(=O)N1CC[C@@H](NC(=O)c2ccc(F)cc2F)[C@@H](C(=O)NCc2cccs2)C1)N(C)C1CCCCC1` [Compound 7, (3S,4R)-1-(N~2~- cyclohexyl-N~2~,N~6~,N~6~- trimethyl-D-lysyl)-4-{[(2,4-difluoro-phenyl)carbonyl]amino}-N-(thiophen-2-ylmethyl)piperidine-3-carboxamide], the IC50 came to 18.7 nM.

With `CN(C)CCCC[C@@H](NC1CCC2(CC1)CCN(Cc1ccccc1)C2)C(=O)N1CC[C@@H](NC(=O)N2CCC3(CC2)CC3)[C@@H](C(=O)NCc2cccs2)C1` (stereo partly drawn) [Compound 31, N-{(3S,4R)-1-[N~2~- (2-benzyl-2-azaspiro[4.5]dec-8-yl)-N~6~,N~6~-dimethyl-D-lysyl]-3-[(thiophen-2-ylmethyl)carbamoyl]pi-peridin-4-yl}-6-azaspiro[2.5]octane-6-carboxamide], the IC50 is 1.5 nM.

Turning to `Cc1cnc(C(=O)N[C@@H]2CCN(C(=O)[C@@H](CC3CCCCC3)NC3CCCCC3)C[C@@H]2C(=O)NCc2ccnc(N)c2)s1` [Compound 4, (3S,4R)-N-[(2-aminopyridin-4-yl)methyl]-1-(N,3-dicyclohexyl-D-alanyl)-4-{[(5-methyl-1,3-thiazol-2-yl)carbonyl]amino}pi-peridine-3-carboxamide], the IC50 is 65.1 nM.

Regarding `CS(=O)(=O)N(CCCC[C@@H](NC1CCCCC1)C(=O)N1CC[C@@H](NC(=O)N2CCC3(CC2)CC3)[C@@H](C(=O)NCc2cccs2)C1)CC(F)(F)F` [Compound 35, N-{(3S,4R)-1-[N~2~- cyclohexyl-N~6~- (methylsulfonyl)-N~6~- (2,2,2-trifluoroethyl)-D-lysyl]-3-[(thiophen-2-ylmethyl)carbamoyl]pi-peridin-4-yl}-6-azaspiro[2.5]octane-6-carboxamide], the IC50 was found to be 19.5 nM.

In the case of `CN(C)CCCC[C@H](C(=O)N1CC[C@@H](NC(=O)c2cc(F)c(F)cc2F)[C@@H](C(=O)NCc2cccs2)C1)N(C)C1CCCCC1` [Compound 10, (3S,4R)-1-(N~2~- cyclohexyl-N~2~,N~6~,N~6~- trimethyl-D-lysyl)-N-(thiophen-2-ylmethyl)-4-{[(2,4,5-trifluoro-phenyl)carbonyl]amino}pi-peridine-3-carboxamide], the IC50 worked out at 29.2 nM.

Take `CN(C)CCCC[C@H](C(=O)N1CC[C@@H](NC(=O)N2CCCc3ccccc32)[C@@H](C(=O)NCc2cccs2)C1)N(C)C1CCCCC1` [Compound 27, N-{(3S,4R)-1-(N~2~- cyclohexyl-N~2~,N~6~,N~6~- trimethyl-D-lysyl)-3-[(thiophen-2-ylmethyl)carbamoyl]pi-peridin-4-yl}-3,4-dihydroquinoline-1(2H)-carboxamide]: the IC50 worked out at 110 nM.

For `CC(=O)NCCCC[C@@H](NC1CCCCC1)C(=O)N1CC[C@@H](NC(=O)N2CCC3(CC2)CC3)[C@@H](C(=O)NCc2cccs2)C1` [Compound 24, N-{(3S,4R)-1-(N~6~- acetyl-N~2~- cyclohexyl-D-lysyl)-3-[(thiophen-2-ylmethyl)carbamoyl]pi-peridin-4-yl}-6-azaspiro[2.5]octane-6-carboxamide], the IC50 was found to be 108 nM.

(Values after patent US11014920B2, “Factor XIIa inhibitors” (Merck Sharp & Dohme Corp., priority 2016, dated 2021).)
